Reference: article PMC7198766, “Structure-Activity Studies on the Hypertrehalosemic Hormone II of the Stick Insect Carausius morosus (Phasmatodea): Carbohydrate-Mobilization and Cardio-Stimulatory Activities” (Frontiers in Physiology, 2020)
“And” between values parts separate entries of the source, which are not always exact repeats. Equal values may be shown once. Marks after values point to notes of the source that are not given here.

Columns and labels:
[1] = tested on: ligated 6th instar Indian stick insects (Carausius morosus); assay: Carbohydrate-mobilization (hypertrehalosemic) in vivo assay; conditions: for % Activity relative to the effect of Carmo-HrTH-II (metabolic): 20 pmol peptide injected, carbohydrate increase relative to Carmo-HrTH-II = 100, NS = no significant increase; for Hemolymph carbohydrates, 90 min: 90 min after injection of 20 pmol peptide in 10 μl; for Hemolymph carbohydrates, 90 min / Hemolymph carbohydrates, Difference: neck-ligated 6th instar nymphs; for Hemolymph carbohydrates, Difference: 90 min minus 0 min, 20 pmol peptide in 10 μl injected; for Hemolymph carbohydrates, 0 min: before injection (0 min), 2 h after neck ligation, group later given 20 pmol peptide in 10 μl, 6th instar nymphs
Experimental: Sixth instar nymphs that were 1–2 days before molting were neck-ligated and used in the hypertrehalosemic in vivo assay as described in detail by [Gäde and Lohr (1982)]. Stock peptide solutions (5 pmol μl^–1) were diluted with distilled water to the desired concentration in 10 μl, which was injected into the stick insect nymphs.
In the first series of experiments, various doses of synthetic Carmo-HrTH-II and corpora cardiaca (CC) extract of C. morosus were used to determine the maximal hypertrehalosemic response of C. morosus. Hemolymph samples were taken from 17 to 18 days old 6th instar nymphs 2 h after they were neck-ligated and then 90 min after either CC extract or synthetic Carmo-HrTH-II was injected. Ligated nymphs injected with distilled water served as controls for handling stress. As depicted in Figures 1A,B, various doses of both Carmo-HrTH-II and CC extract increased the level of carbohydrates in the hemolymph in a dose-dependent manner. A dose of 0.04 pmol of synthetic Carmo-HrTH-II and the equivalent of 0.005 pairs of corpora cardiaca (pCC) were sufficient to give significant increases in hemolymph carbohydrates (p < 0.05). […] Doses of 0.1–0.5 pCC gave an average increase of 5.6 ± 0.6 mg carbohydrates ml^–1 hemolymph (Figure 1B); again, statistical analyses reveal no significant difference between the effect of these doses (p > 0.05).
Based on these pilot experiments, we selected a dose of 20 pmol for testing the analogs of Carmo-HrTH-II since such a dose of our lead compound, Carmo-HrTH-II had achieved maximal hypertrehalosemic activity.

[2] = tested on: heart of neck-ligated Carausius morosus; assay: Semi-exposed heart bioassay (heart beat rate); assay type: in vivo; conditions: for % Activity relative to the effect of Carmo-HrTH-II (myotropic) / Heart rate, Difference: 20 pmol peptide in 150 μl; for % Activity relative to the effect of Carmo-HrTH-II (myotropic): heart rate increase relative to Carmo-HrTH-II = 100, NS = no significant increase; for Heart rate, Post-application: after application of 20 pmol peptide in 150 μl saline, average of first four counts; for Heart rate, Post-application / Heart rate, Pre-application: neck-ligated stick insects; for Heart rate, Pre-application: in saline before application, semi-exposed heart; for Heart rate, Difference: post- minus pre-application
Experimental: The semi-exposed heart bioassay was carried out as described ([Marco et al., 2018]) with adult stick insects between 1 and 2 months old that were ligated at the neck. Briefly, a ventral incision of the abdomen exposed the ventral cavity with the internal organs; a few drops of stick insect saline (pH 6.6; 15 mM NaCl, 18 mM KCl, 7.5 mM CaCl2, 2 mM HEPES, 50 mM MgCl2, and 184 mM glucose according to [Ejaz and Lange, 2008]) were added to the exposed part. The semi-isolated heart preparation was viewed with a dissecting microscope (12-fold magnification), and the number of observed heart beats (contractions of the heart muscle) was counted during a fixed period using a manual tally counter and a timer. Once the heart had stabilized, saline was replaced with the test solution. For this the peptide stock solution of 5 pmol μl^–1 was diluted with stick insect saline to the desired concentration and a final volume of 150 μl was used for each test.
Heart rates under normal saline served as controls. The change in heart rate after the application of the test solution was calculated as an average of the first four counts and was compared to the average heart rates counted in saline before the application of the test solution. This comparison of change in heart rates was done for all the peptides tested.

[3] = tested on: heart of neck-ligated Carausius morosus; design: method as in Marco et al., 2018; conditions: ref Marco et al., 2018, cited from earlier work
Blaberus discoidalis = tested on: Blaberus discoidalis; design: method as in Hayes and Keeley, 1990; conditions: in vivo assay, cockroach B. discoidalis; ref Hayes and Keeley, 1990; cited from earlier work
Manduca sexta = tested on: Manduca sexta; design: method as in Fox and Reynolds, 1991; Ziegler et al., 1991; conditions: in vivo assay, ref Fox and Reynolds, 1991, Ziegler et al.; cited from earlier work
Periplaneta americana = tested on: Periplaneta americana; design: method as in Gäde, 1990; conditions: in vivo assay, P. americana; ref Gäde, 1990; cited from earlier work
Locusta migratoria = tested on: Locusta migratoria; design: method as in Gäde, 1990; conditions: in vivo assay, L. migratoria; ref Gäde, 1990; cited from earlier work

pGlu-Leu-Thr-Phe-Thr-Pro-Asn-Trp-Gly-Thr amide [Carmo-HrTH-II, reference compound]
% Activity relative to the effect of Carmo-HrTH-II (metabolic) [1]: 100%
Hemolymph carbohydrates, 90 min [1]: 14.9 ± 1.9 mg/mL
Hemolymph carbohydrates, Difference [1]: 5.4 ± 1.1 mg/mL
Hemolymph carbohydrates, 0 min [1]: 9.4 ± 1.5 mg/mL
Average increase of hemolymph carbohydrates ([1]; doses of 7.5–60 pmol (plateau, no significant difference between doses), 90 min): 5.2 ± 0.4 mg ml^–1
Dose sufficient to give significant increases in hemolymph carbohydrates ([1]; synthetic peptide injected, 17-18 days old ligated 6th instar nymphs, 90 min, p < 0.05): 0.04 pmol
% Activity relative to the effect of Carmo-HrTH-II (myotropic) [2]: 100%
Heart rate, Post-application [2]: 53 ± 5 beats min^−1
Heart rate, Pre-application [2]: 41 beats min^−1 and 41 ± 4 beats min^−1
Heart rate, Difference [2]: 12 ± 5 beats min^−1
Doses that increased the heart beat rate significantly and maximally ([3]; ligated stick insects, synthetic peptide): above 6.67 × 10^–8 M
Fold less active than the endogenous Bladi-HrTH (Blaberus discoidalis): more than 300 fold
Activity relative to the endogenous nonapeptide Manse-AKH (Manduca sexta): as, or slightly more active than the endogenous nonapeptide Manse-AKH
Activity relative to the endogenous octapeptides Peram-CAH-I and -II (Periplaneta americana): more or less as active
Activity relative to the endogenous decapeptide Locmi-AKH-I (Locusta migratoria): only slightly less active

NCC(O)c1ccc(O)cc1 (stereo not shown) [octopamine]
Effect on contraction of the heart ([3]; C. morosus heart, dose-dependent): inhibits the contraction of the heart

pGlu-Leu-Thr-Phe-Thr-Pro-Asn-Trp*-Gly-Thr amide [Carmo-HrTH-I, endogenous hormone isolated from C. morosus CC; Trp^8 C-mannosylated, reference compound]
% Activity relative to the effect of Carmo-HrTH-II (metabolic) [1]: 91^b %
Hemolymph carbohydrates, 90 min [1]: 12.9 ± 1.9 mg/mL
Hemolymph carbohydrates, Difference [1]: 4.9 ± 1.1 mg/mL
Hemolymph carbohydrates, 0 min [1]: 8.0 ± 1.6 mg/mL
% Activity relative to the effect of Carmo-HrTH-II (myotropic) [2]: 108^b %
Heart rate, Post-application [2]: 54 ± 2 beats min^−1
Heart rate, Pre-application [2]: 41 beats min^−1 and 41 ± 4 beats min^−1
Heart rate, Difference [2]: 13 ± 2 beats min^−1

pGlu-Leu-Asn-Phe-Thr-Pro-Asn-Trp amide [Pyrap-AKH, naturally-occurring AKH octapeptide bioanalog, reference compound]
Hemolymph carbohydrates, 90 min [1]: 9.2 ± 1.8 mg/mL
Hemolymph carbohydrates, Difference [1]: 0.5 ± 1.0 mg/mL
Hemolymph carbohydrates, 0 min [1]: 8.7 ± 1.8 mg/mL
% Activity relative to the effect of Carmo-HrTH-II (myotropic) [2]: 16%
Heart rate, Post-application [2]: 41 ± 4 beats min^−1
Heart rate, Pre-application [2]: 39 ± 5 beats min^−1
Heart rate, Difference [2]: 2 ± 2 beats min^−1

pGlu-Ala-Thr-Phe-Thr-Pro-Asn-Trp-Gly-Thr amide [Ala^2-Carmo-HrTH-II]
% Activity relative to the effect of Carmo-HrTH-II (metabolic) [1]: 100%
Hemolymph carbohydrates, 90 min [1]: 16.8 ± 1.7 mg/mL
Hemolymph carbohydrates, Difference [1]: 5.4 ± 1.7 mg/mL
Hemolymph carbohydrates, 0 min [1]: 11.4 ± 2.3 mg/mL
Heart rate, Post-application [2]: 42 ± 5 beats min^−1
Heart rate, Pre-application [2]: 42 ± 7 beats min^−1
Heart rate, Difference [2]: 0 ± 2 beats min^−1

pGlu-Leu-Asn-Phe-Thr-Pro-Asn-Trp-Gly-Ser amide [Phymo-AKH, naturally-occurring AKH decapeptide bioanalog, reference compound]
Hemolymph carbohydrates, 90 min [1]: 10.5 ± 1.4 mg/mL
Hemolymph carbohydrates, Difference [1]: 0.9 ± 1.7 mg/mL
Hemolymph carbohydrates, 0 min [1]: 9.6 ± 1.8 mg/mL
% Activity relative to the effect of Carmo-HrTH-II (myotropic) [2]: 8%
Heart rate, Post-application [2]: 38 ± 4 beats min^−1
Heart rate, Pre-application [2]: 37 ± 3 beats min^−1
Heart rate, Difference [2]: 1 ± 1 beats min^−1

pGlu-Leu-Thr-Phe-Thr-Pro-Asn-Trp-Ala-Thr amide [Ala^9-Carmo-HrTH-II]
% Activity relative to the effect of Carmo-HrTH-II (metabolic) [1]: 28%
Hemolymph carbohydrates, 90 min [1]: 11.0 ± 1.5 mg/mL
Hemolymph carbohydrates, Difference [1]: 1.5 ± 0.9 mg/mL
Hemolymph carbohydrates, 0 min [1]: 9.5 ± 1.9 mg/mL
Heart rate, Post-application [2]: 38 ± 2 beats min^−1
Heart rate, Pre-application [2]: 39 ± 2 beats min^−1
Heart rate, Difference [2]: −1 ± 1 beats min^−1
